What was measured:
[1] = tested on: zebrafish larvae, 120 hpf; assay: Larval photomotor response (LPR) assay after vial exposure; type: in vivo, Danio rerio; conditions: for fold_change: LPR
Protocol: (§1) When embryos were 6 hpf they were bleached in groups of 1000 or less to limit bacterial growth in sealed vials. Embryos were placed in a strainer for transfer between solutions in 500 mL containers. […] Pools of eight embryos were placed into 2 mL clear glass screw cap exposure vials with polyvinyl-faced pulp liner (Avantar Radnor, PA, United States) using a glass Pasteur pipette. Excess EM was removed, and 2 mL of fresh EM was immediately added. A total of 10 uL of 200x working stock (in DMSO) was added to each vial, then immediately capped and inverted three times to mix. […] Vials were loaded into a custom 3D printed vial holder for slow end-over-end rotation in a dark 28 °C incubator overnight. […] At 24 hpf, embryos were removed from exposure vials and singulated into 96-well plates loaded with 100 μL chemical-free EM. Each exposure vial group was maintained in plate columns. After loading into 96-well plates, embryos were assessed for 24-hour mortality. For the remainder of the exposure, plates were kept stationary at 28 °C in the dark, until 120 hpf when morphology screening and the larval photo motor response (LPR) assay were conducted, section 2.3.2 and section 2.3.3, respectively.
Each treatment group was replicated over four vials, resulting in 32 embryos per treatment, split over two replicate 96-well plates per chemical. […] Vial groups of plated larvae were tracked to assess the impact of the vial on the results. All reported concentrations were nominal water concentrations and are included in SI-T4.
The LPR assay was conducted at 120 hpf. […] Larval movement was tracked throughout minutes 6–24. Animals dead or morphologically abnormal were excluded from the analysis, and if more than 30 % of the wells in a treatment group were excluded, the treatment was removed.
Movement values were binned into 6s intervals, log normalized and used to calculate area under the curve (AUC). AUC values from the first cycle after calibration were used to calculate the LEL for each period (light and dark).

[2] = tested on: early life stage zebrafish (Danio rerio) embryos; assay: Developmental toxicity morphology screen, sealed rotating vial exposure; type: in vivo; parameters: bmd, MO24 / bmd, MORT / bmd, ANY_ / bmd, AXIS / bmd, CRAN / bmd, EDEM / bmd, LTRK / bmd, MUSC / bmdL, ANY_ / bmdU, ANY_ / bmdL, AXIS / bmdU, AXIS / bmdL, CRAN / bmdU, CRAN / bmdL, EDEM / bmdU, EDEM / bmdL, LTRK / bmdU, LTRK / bmdL, MO24 / bmdU, MO24 / bmdL, MORT / bmdU, MORT: unit not given here
Protocol: as §1
Each treatment group was replicated over four vials, resulting in 32 embryos per treatment, split over two replicate 96-well plates per chemical. […] All reported concentrations were nominal water concentrations and are included in SI-T4.
At 24 hpf embryos were assessed for mortality (MO24). At 120 hpf embryos were assessed for abnormality in […] morphological endpoints: mortality (MORT), edemas (EDEM), bent axis (AXIS), touch response (TCHR), craniofacial (CRAN), muscular/cardiovascular (MUSC), lower trunk (LRTK), brain (BRAN), skin (SKIN), and notochord malformations (NC). Morphological assessments were made by a team of three to four individuals. The team was blinded to the identity, plate layout, and concentrations of the chemicals, thereby minimizing bias in morphological screening assessment. To ensure the assessments were consistent, concentration–response reproducibility of a parathion ethyl quality control plate was performed along with each experimental exposure set up. Details of all measured endpoints can be found at Developmental toxicity zebrafish phenotype atlas. […] Each endpoint was scored as a binary presence/absence and scores were compiled into an “Any effect” endpoint, the presence of abnormality in any individual endpoint.
The Any effect percent was used to calculate the BMC50, 50 % change relative to the background for each endpoint and chemical. All values were reported as the nominal exposure concentration.

[3] = period dark, round 1, conc 3.125
[4] = period dark, round 1, conc 6.25
[5] = period dark, round 1, conc 12.5
[6] = period light, round 1, conc 3.125
[7] = period light, round 1, conc 6.25
[8] = period light, round 1, conc 12.5
[9] = Fig. 2 heatmap; nominal concentration, exposure 6-24 hpf in vials, summary of all endpoints
[10] = endpoint MORT; lower limit of benchmark dose
[11] = endpoint MORT; upper limit of benchmark dose
[12] = morphology endpoint EDEM; benchmark dose
[13] = morphology endpoint EDEM; lower limit of benchmark dose
[14] = morphology endpoint EDEM; upper limit of benchmark dose
[15] = benchmark dose; morphology endpoint ANY_ (any effect)

| SMILES | fold_change [1, 3] | fold_change [1, 4] | fold_change [1, 5] | fold_change [1, 6] | fold_change [1, 7] | fold_change [1, 8] | BMC50 AXIS (curved or bent body axis at 120 hpf) ([2]; Fig. 2; nominal concentration) | BMC50 EDEM (pericardial and/or yolk sac edema at 120 hpf) ([2]; Fig. 2; nominal concentration) | BMC50 MO24 (mortality at 24 hpf) ([2]; Fig. 2; nominal concentration) | BMC50 MORT (mortality at 120 hpf) ([2]; Fig. 2; nominal concentration) | BMC50 Any effect [2, 9] | any effect BMD50 ([2]; SI-T5) | bmd, MORT ([2]; endpoint MORT; benchmark dose) | bmdL, MORT [2, 10] | bmdU, MORT [2, 11] | bmd, EDEM [2, 12] | bmdL, EDEM [2, 13] | fold_change ([1]; period dark, round 1, conc 25) | fold_change ([1]; period light, round 1, conc 25) | bmd, ANY_ [2, 15] | further results |
| --- | --- | --- | --- | --- | --- | --- | --- | --- | --- | --- | --- | --- | --- | --- | --- | --- | --- | --- | --- | --- | --- |
| CCCCc1ccc2ccccc2c1 [2-butylnaphthalene] | -0.7788 | -1.395 | -2.279 | 0.2651 | -0.6707 | 0.432 | 31.7 µM | 37.1 µM | 45.9 µM | 29.2 µM | 13.8 µM | 13.76 µM | 29.2083 | 24.1073 | 36.5916 | 37.0933 | 25.0511 | – | – | – | BMC50 CRAN (craniofacial malformation at 120 hpf) ([2]; Fig. 2; nominal concentration): 32.3 µM; BMC50 LTRK (lower trunk and/or caudal fin at 120 hpf) ([2]; Fig. 2; nominal concentration): 32.6 µM; bmd, MO24 ([2]; endpoint MO24; benchmark dose): 45.9226; bmdL, MO24 ([2]; endpoint MO24; lower limit of benchmark dose): 34.5575; bmdU, MO24 ([2]; endpoint MO24; upper limit of benchmark dose): 71.8256; bmd, ANY_ ([2]; morphology endpoint ANY_; benchmark dose): 13.7563; bmdL, ANY_ ([2]; morphology endpoint ANY_; lower limit of benchmark dose): 11.3562; bmdU, ANY_ ([2]; morphology endpoint ANY_; upper limit of benchmark dose): 16.7056; bmd, AXIS ([2]; morphology endpoint AXIS; benchmark dose): 31.7332; bmdL, AXIS ([2]; morphology endpoint AXIS; lower limit of benchmark dose): 20.8074; bmdU, AXIS ([2]; morphology endpoint AXIS; upper limit of benchmark dose): 68.8189; bmd, CRAN ([2]; morphology endpoint CRAN; benchmark dose): 32.2639; bmdL, CRAN ([2]; morphology endpoint CRAN; lower limit of benchmark dose): 21.7357; bmdU, CRAN ([2]; morphology endpoint CRAN; upper limit of benchmark dose): 64.257; bmdU, EDEM [2, 14]: 73.9212; bmd, LTRK ([2]; morphology endpoint LTRK; benchmark dose): 32.6419; bmdL, LTRK ([2]; morphology endpoint LTRK; lower limit of benchmark dose): 22.6339; bmdU, LTRK ([2]; morphology endpoint LTRK; upper limit of benchmark dose): 59.8583 |
| Cc1ccc(C)c2ccccc12 [1,4-dimethylnaphthalene] | 0.2846 | -0.05841 | -0.1506 | 0.303 | -0.4509 | 1.1 | – | – | 30.4 µM | 28.3 µM | 24.9 µM | 24.93 µM | – | – | – | – | – | -0.2067 | 0.6023 | 24.9263 | bmd, MO24 ([2]; benchmark dose; endpoint MO24): 30.4433; bmd, MORT ([2]; benchmark dose; endpoint MORT): 28.3398 |
| CCc1ccc2cc(CC)ccc2c1 [2,6-diethylnaphthalene] | 0.178 | -0.04909 | -0.5724 | -0.07519 | 0.5876 | 0.2476 | 46.9 µM | – | 38.1 µM | 39.2 µM | 18.8 µM | 18.77 µM | – | – | – | – | – | -0.5473 | 0.1223 | 18.7673 | bmd, MO24 ([2]; benchmark dose; endpoint MO24): 38.0576; bmd, MORT ([2]; benchmark dose; endpoint MORT): 39.1942; bmd, AXIS ([2]; benchmark dose; morphology endpoint AXIS): 46.8649 |
| CC(C)(C)c1ccc2ccc(C(C)(C)C)cc2c1 [2,7-di-tert-butylnaphthalene] | -0.2175 | -0.4542 | -0.5803 | 0.7527 | 0.7301 | 0.5841 | – | 33.6 µM | no MO24 BMC50 | 41.3 µM | 24.7 µM | 24.66 µM | 41.3049 | 34.7649 | 51.9197 | 33.6463 | 26.4386 | -1.44 | 0.3464 | 24.6598 | bmdU, EDEM [2, 14]: 67.8341 |
| Cc1cccc2ccccc12 [1-methylnaphthalene] | -0.2838 | -0.4018 | -0.5302 | 0.7433 | 0.645 | 0.113 | – | – | – | – | – | – | – | – | – | – | – | -0.8382 | 0.4697 | – | LPR behavioral effect ([1]; 120 hpf, light/dark periods, result in words): active; fold_change ([1]; period dark, round 1, conc 50): -0.8713; fold_change ([1]; period light, round 1, conc 50): 0.667; morphological effects (BMC50 for any morphological endpoint) ([2]; 0-50 μM, result in words): no morphological BMC50 values |

Source: PMC12560828, “Chemical structure drives developmental toxicity of alkyl-substituted naphthalenes in zebrafish” (Environment international, 2025)
